Assay results from patent US20250145594A1, “MODULATORS OF THE INTEGRATED STRESS PATHWAY” (Calico Life Sciences LLC, priority 2020, published 2025).

System: ATF4 luciferase reporter in HEK293T cells
Test: ATF4-Luc assay (in vitro model of VWMD)
Assay type: cell-based, human
Conditions: Homo sapiens, HEK-293T, 7 h, HEK293T cells carrying the ATF4 luciferase reporter, 1 μg/mL tunicamycin, One Glo luminescence
Method in brief: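 Tunicamycin (1 μg/mL) stress with co-added compound for 7 hours in HEK293T cells stably carrying an ATF4 5′-UTR–luciferase reporter. EC50 values come from the luminescent signal (One Glo).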

Row | SMILES | EC50
1 | O=C(NC12CC(n3cc(C(=O)N4CC[C@@H](OC(F)F)C4)cn3)(C1)C2)[C@H]1C[C@@H](O)c2cc(Cl)ccc2O1 [Compound 399, (2R,4R)-6-chloro-N-(3-{4-[(3R)-3-(difluoromethoxy)pyrrolidine-1-carbonyl]-1H-pyrazol-1-yl}bicyclo[1.1.1]pentan-1-yl)-4-hydroxy-3,4-dihydro-2H-1-benzopyran-2-carboxamide] | 250 to 500 nM
2 | O=C(NC12CC(n3cc(C(=O)N4CC[C@H](OC(F)(F)F)C4)cn3)(C1)C2)[C@H]1C[C@H](O)c2cc(Cl)ccc2O1 [Compound 585, (2R,4S)-6-chloro-4-hydroxy-N-(3-{4-[(3S)-3-(trifluoromethoxy)pyrrolidine-1-carbonyl]-1H-pyrazol-1-yl}bicyclo[1.1.1]pentan-1-yl)-3,4-dihydro-2H-1-benzopyran-2-carboxamide] | < 10 nM
3 | O=C(NC12CC(n3cc(N4CC(OC(F)(F)F)C4)cn3)(C1)C2)[C@H]1C[C@@H](O)c2cc(Cl)ccc2O1 [Compound 352, (2R,4R)-6-chloro-4-hydroxy-N-(3-{4-[3-(trifluoromethoxy)azetidin-1-yl]-1H-pyrazol-1-yl}bicyclo[1.1.1]pentan-1-yl)-3,4-dihydro-2H-1-benzopyran-2-carboxamide] | 10 to 50 nM
4 | O=C(NC12CC(n3cc(-c4ccc(OC(F)(F)F)cn4)cn3)(C1)C2)[C@H]1C[C@@H](O)c2cc(F)ccc2O1 (single isomer, unassigned) [Compound 475] | < 10 nM
5 | O=C(NC12CC(n3cnc([C@H]4C[C@@H](OC(F)(F)F)C4)c3)(C1)C2)[C@H]1C[C@@H](O)c2cc(Cl)c(F)cc2O1 [Compound 472, (2R,4R)-6-chloro-7-fluoro-4-hydroxy-N-(3-{4-[(1s,3S)-3-(trifluoromethoxy)cyclobutyl]-1H-imidazol-1-yl}bicyclo[1.1.1]pentan-1-yl)-3,4-dihydro-2H-1-benzopyran-2-carboxamide] | < 10 nM
6 | CC(=O)N1CC=C(c2cnn(C34CC(NC(=O)[C@H]5C[C@@H](O)c6cc(Cl)ccc6O5)(C3)C4)c2)CC1 [Compound 340, (2R,4R)—N-{3-[4-(1-acetyl-1,2,3,6-tetrahydropyridin-4-yl)-1H-pyrazol-1-yl]bicyclo[1.1.1]pentan-1-yl}-6-chloro-4-hydroxy-3,4-dihydro-2H-1-benzopyran-2-carboxamide] | 50 to 250 nM
7 | O=C(N[C@H]1CC[C@H](n2cc(OCCOC(F)(F)F)cn2)CC1)[C@H]1C[C@@H](O)c2cc(F)c(F)cc2O1 [Compound 638, (2R,4R)-6,7-difluoro-4-hydroxy-N-[(1r,4R)-4-{4-[2-(trifluoromethoxy)ethoxy]-1H-pyrazol-1-yl}cyclohexyl]-3,4-dihydro-2H-1-benzopyran-2-carboxamide] | < 10 nM
8 | O=C(NC12CC(n3cc(C(=O)N4CC(COC(F)(F)F)C4)cn3)(C1)C2)[C@H]1C[C@@H](O)c2cc(Cl)c(F)cc2O1 [Compound 363, (2R,4R)-6-chloro-7-fluoro-4-hydroxy-N-[3-(4-{3-[(trifluoromethoxy)methyl]azetidine-1-carbonyl}-1H-pyrazol-1-yl)bicyclo[1.1.1]pentan-1-yl]-3,4-dihydro-2H-1-benzopyran-2-carboxamide] | < 10 nM
9 | O=C(NC12CC(n3cc4cc(OC(F)(F)F)ccc4n3)(C1)C2)[C@H]1C[C@@H](O)c2cc(Cl)ccc2O1 [Compound 509, (2R,4R)-6-chloro-4-hydroxy-N-{3-[5-(trifluoromethoxy)-2H-indazol-2-yl]bicyclo[1.1.1]pentan-1-yl}-3,4-dihydro-2H-1-benzopyran-2-carboxamide] | 10 to 50 nM
10 | O=C(N[C@H]1CC[C@H](n2cc(OCCOC(F)(F)F)cn2)CC1)[C@H]1C[C@@H](O)c2cc(F)ccc2O1 [Compound 523, (2R,4R)-6-fluoro-4-hydroxy-N-[(1r,4R)-4-{4-[2-(trifluoromethoxy)ethoxy]-1H-pyrazol-1-yl}cyclohexyl]-3,4-dihydro-2H-1-benzopyran-2-carboxamide] | < 10 nM
11 | O=C1CC(C(=O)NC23CC(c4nnc([C@H]5C[C@@H](OC(F)(F)F)C5)o4)(C2)C3)Oc2ccc(Cl)cc21 (stereo partly drawn) [Compound 151, 6-chloro-4-oxo-N-(3-{5-[(1s,3s)-3-(trifluoromethoxy)cyclobutyl]-1,3,4-oxadiazol-2-yl}bicyclo[1.1.1]pentan-1-yl)-3,4-dihydro-2H-1-benzopyran-2-carboxamide] | 50 to 250 nM
12 | O=C(NC12CC(n3cnc(C(=O)N4CCC[C@@H](OC(F)(F)F)C4)c3)(C1)C2)[C@H]1C[C@@H](O)c2cc(Cl)ccc2O1 [Compound 392, (2R,4R)-6-chloro-4-hydroxy-N-(3-{4-[(3R)-3-(trifluoromethoxy)piperidine-1-carbonyl]-1H-imidazol-1-yl}bicyclo[1.1.1]pentan-1-yl)-3,4-dihydro-2H-1-benzopyran-2-carboxamide] | 250 to 500 nM
13 | O=C(CO[C@H]1C[C@@H](OC(F)(F)F)C1)NC12CC(NC(=O)[C@H]3C[C@@H](O)c4cc(Cl)ccc4O3)(C1)C2 (racemic) [Compound 114, rac-(2R,4R)-6-chloro-4-hydroxy-N-[3-(2-{[(1s,3s)-3-(trifluoromethoxy)cyclobutyl]oxy}acetamido)bicyclo[1.1.1]pentan-1-yl]-3,4-dihydro-2H-1-benzopyran-2-carboxamide] | < 10 nM
14 | O=C(CO[C@H]1C[C@@H](OC(F)(F)F)C1)NC12CC(NC(=O)[C@@H]3C[C@@H](O)c4cc(Cl)c(Cl)cc4O3)(C1)C2 [Compound 492, (2S,4R)-6,7-dichloro-4-hydroxy-N-[3-(2-{[(1s,3R)-3-(trifluoromethoxy)cyclobutyl]oxy}acetamido)bicyclo[1.1.1]pentan-1-yl]-3,4-dihydro-2H-1-benzopyran-2-carboxamide] | < 10 nM
15 | O=C(NC12CC(n3cc(OCCOC(F)(F)F)cn3)(C1)C2)[C@H]1C[C@@H](O)c2cc(C(F)(F)F)ccc2O1 [Compound 424, (2R,4R)-4-hydroxy-N-(3-{4-[2-(trifluoromethoxy)ethoxy]-1H-pyrazol-1-yl}bicyclo[1.1.1]pentan-1-yl)-6-(trifluoromethyl)-3,4-dihydro-2H-1-benzopyran-2-carboxamide] | < 10 nM
16 | O=C(NC12CC(n3cc(-c4ccc(OC(F)(F)F)cn4)cn3)(C1)C2)[C@H]1C[C@@H](O)c2cc(Cl)c(Cl)cc2O1 [Compound 566, (2R,4R)-6,7-dichloro-4-hydroxy-N-(3-{4-[5-(trifluoromethoxy)pyridin-2-yl]-1H-pyrazol-1-yl}bicyclo[1.1.1]pentan-1-yl)-3,4-dihydro-2H-1-benzopyran-2-carboxamide] | < 10 nM
17 | O=C(NC12CC(n3cc(-c4ccc(OC(F)(F)F)cn4)cn3)(C1)C2)[C@H]1C[C@@H](O)c2cc(Cl)c(Br)cc2O1 [Compound 380, (2R,4R)-7-bromo-6-chloro-4-hydroxy-N-(3-{4-[5-(trifluoromethoxy)pyridin-2-yl]-1H-pyrazol-1-yl}bicyclo[1.1.1]pentan-1-yl)-3,4-dihydro-2H-1-benzopyran-2-carboxamide] | < 10 nM
18 | O=C(NC12CC(n3cc(C(=O)N4CC[C@H](OC(F)(F)F)C4)cn3)(C1)C2)[C@H]1C[C@@H](O)c2cc(Cl)ccc2O1 [Compound 371, (2R,4R)-6-chloro-4-hydroxy-N-(3-{4-[(3S)-3-(trifluoromethoxy)pyrrolidine-1-carbonyl]-1H-pyrazol-1-yl}bicyclo[1.1.1]pentan-1-yl)-3,4-dihydro-2H-1-benzopyran-2-carboxamide] | < 10 nM
